≈ marks a conversion by molar mass, not a printed value. Where only a bound is given, the exact number is not on record here.

A short description of series [1]: Solubility in phosphate buffer pH=7.4. Type of series: physicochemical. The conditions noted are these: for solubility at 24 h: aqueous buffer, thermodynamic from solid; for Solubility ratio: phosphate derivative / unphosphated counterpart; for Solubility ratio / fold more soluble compared to unphosphated analogue: phosphate buffer pH=7.4. The protocol: General procedure: The test compound was solubilized in phosphate buffer pH=7.4 at a given concentration (test concentration). The mixture was maintained under vigorous stirring for 24 hours at room temperature. In case a insoluble solid appeared, it was removed by centrifugation and the concentration of the test compound in the solution was determined by LC-MS/MS using appropriate methods.

A short description of series [2]: Stability in water at room temperature. The conditions noted are these: 5 mg/mL in water. The series is classed as physicochemical. How it is done:
General procedure: compound 2 (Cpd. 2) according to the invention was dissolved in water in order to obtain a 5 mg/mL concentration. The solution was stirred for 7 days at room temperature. Compound 2 was quantified at different time points (0, 5 days and 7 days) by UPLC/MS using appropriate method.
Results are expressed as percentage of initial signal area for Cpd.2 (time point (1-day).

Series [3] can be described thus: Metabolic stability (hydrolysis) in bronchoalveolar lavage fluid. Type of series: in vitro ADME, human. The protocol: General procedure: human bronchoalveolar lavage fluid (hBALf) was purchased from BiolVT. Sample was collected from an individual donor. The only known information provided for the donor were age and gender. Information regarding the health status of the donor was not known.
The hydrolysis of compound 2 was tested at the concentration of 1 μM and 10 μM for 120 minutes (time points 5, 15, 30, 60 and 120 minutes). Quantification of the compound was then carried out by LC-MS/MS using appropriate methods.

The mark [4] stands for this setting: phosphate buffer pH=7.4, stirring 24 hours at room temperature, LC-MS/MS.

As a reminder, the solubility is the dissolved amount per volume that the medium holds. In the case of `Cc1ccc(C(NC(=O)C2(c3ccc4[nH]cc(CCOP(=O)([O-])[O-])c4c3)CC2)c2ccccc2)c(N2CCOCC2)c1.[Na+].[Na+]` (centres unmarked) [Cpd.16, disodium 2-{5-[1-({[4-methyl-2-(morpholin-4-yl)phenyl](phenyl)methyl}carbamoyl)cyclopropyl]-1H-indol-3-yl}ethyl phosphate], in series [1] (setting [4]), the solubility at 24 h came out at 3640 µg/mL. In addition, the Solubility ratio in series [1] is on record as 52 057.
Turning to `Cc1ccc(C(NC(=O)C2(c3ccc4[nH]cc(CCOP(=O)([O-])[O-])c4c3)CC2)C2CC2)c(C)c1.[Na+].[Na+]` (centres unmarked) [Cpd.14, disodium 2-[5-(1-{[cyclopropyl(2,4-dimethylphenyl)methyl]carbamoyl}cyclopropyl)-1H-indol-3-yl]ethyl phosphate], the solubility at 24 h in series [1] (setting [4]) is > 70800 µg/mL. In addition, in series [1], the Solubility ratio is reported as ≥5 949.
Molecule `COc1cc(C)ccc1C(NC(=O)C1(c2ccc3[nH]cc(CCO)c3c2)CC1)c1ccccc1` (centres unmarked) [Ex.2a, 1-[3-(2-hydroxyethyl)-1H-indol-5-yl]-N-[(2-methoxy-4-methylphenyl)(phenyl)methyl]cyclopropane-1-carboxamide] yielded a solubility at 24 h in series [1] (setting [4]) of 1.6 µg/mL (≈ 3.52 µM).
As for `Cc1ccc(C(NC(=O)C2(c3ccc4[nH]cc(CCOP(=O)([O-])[O-])c4c3)CC2)c2ccc(C)o2)c(C)c1.[Na+].[Na+]` (centres unmarked) [Cpd.2, disodium 2-[5-(1-{[(2,4-dimethylphenyl)(5-methylfuran-2-yl)methyl]carbamoyl}cyclopropyl)-1H-indol-3-yl]ethyl phosphate], the “percentage of initial signal area for Cpd.2 (stability in water)” value in series [2] (time point 0 days) stood at 100%; in series [2] (time point 5 days), 98%; in series [2] (time point 7 days), 98%. Further, the “Cpd.2 quantification in hBALf, percentage of initial signal area” value was 100% in series [3] (1 μM, time point 0 min); 16.46% in series [3] (1 μM, time point 5 min); 1.84% in series [3] (1 μM, time point 15 min); 0.57% in series [3] (1 μM, time point 30 min); 0.28% in series [3] (1 μM, time point 60 min); 0.19% in series [3] (1 μM, time point 120 min). Moreover, the “Cpd.2 quantification in hBALf, percentage of initial signal area” value came to 100% in series [3] (10 μM, time point 0 min); 14.98% in series [3] (10 μM, time point 5 min); 4.27% in series [3] (10 μM, time point 15 min); 1.38% in series [3] (10 μM, time point 30 min); 0.49% in series [3] (10 μM, time point 60 min); 0.25% in series [3] (10 μM, time point 120 min). The solubility at 24 h in series [1] (setting [4]) is 143000 µg/mL. Moreover, the “fold more soluble compared to unphosphated analogue” value in series [1] is reported as “at least 1500 fold”. Also, the Solubility ratio in series [1] is 1 588.
In series [1] (setting [4]), `COc1cc(C)ccc1C(NC(=O)C1(c2ccc3[nH]cc(CCOP(=O)([O-])[O-])c3c2)CC1)c1ccccc1.[Na+].[Na+]` (centres unmarked) [Cpd.4, disodium 2-[5-(1-{[(2-methoxy-4-methylphenyl)(phenyl)methyl]carbamoyl}cyclopropyl)-1H-indol-3-yl]ethyl phosphate] came in with a solubility at 24 h of 11200 µg/mL. Further, the Solubility ratio in series [1] was 7 000.
In turn, `Cc1ccc(C(NC(=O)C2(c3ccc4[nH]cc(CCO)c4c3)CC2)C2CC2)c(C)c1` (centres unmarked) [Ex.7a, N-[cyclopropyl(2,4-dimethylphenyl)methyl]-1-[3-(2-hydroxyethyl)-1H-indol-5-yl]cyclopropane-1-carboxamide] displayed a solubility at 24 h in series [1] (setting [4]) of 11.9 µg/mL (≈ 29.6 µM).
Regarding `Cc1ccc(C(NC(=O)C2(c3ccc4[nH]cc(CCO)c4c3)CC2)c2cccc(Cl)c2)c(C)c1` (centres unmarked) [Ex.4a, N-[(3-chlorophenyl)(2,4-dimethylphenyl)methyl]-1-[3-(2-hydroxyethyl)-1H-indol-5-yl]cyclopropane-1-carboxamide], in series [1] (setting [4]), the solubility at 24 h was 0.1 µg/mL (≈ 0.211 µM).
Regarding `Cc1ccc(C(NC(=O)C2(c3ccc4[nH]cc(CCOP(=O)([O-])[O-])c4c3)CC2)c2cccc(Cl)c2)c(C)c1.[Na+].[Na+]` (centres unmarked) [Cpd.8, disodium 2-[5-(1-{[(3-chlorophenyl)(2,4-dimethylphenyl)methyl]carbamoyl}cyclopropyl)-1H-indol-3-yl]ethyl phosphate], the solubility at 24 h in series [1] (setting [4]) was > 10000 µg/mL. Besides, in series [1], the “fold more soluble compared to unphosphated analogue” value was “more than 100 000 fold” and the Solubility ratio is on record as ≥100 000.
Take `Cc1ccc(C(NC(=O)C2(c3ccc4[nH]cc(CCOP(=O)(O)O)c4c3)CC2)c2cccc(C)n2)c(C)c1.[Na].[Na]` (centres unmarked) [Cpd.6, disodium {2-[5-(1-{[(2,4-dimethyl phenyl)(6-methylpyridin-2-yl)methyl]carbamoyl}cyclopropyl)-1H-indol-3-yl]ethoxy} phosphonic acid]: in series [1] (setting [4]), the solubility at 24 h is > 62700 µg/mL. Moreover, the Solubility ratio in series [1] is given as ≥12 000.
What is called Solubility is how much of the substance goes into solution per volume. As to `Cc1noc(C)c1C(NC(=O)C1(c2ccc3[nH]cc(CCOP(=O)([O-])[O-])c3c2)CC1)c1ccccc1.[Na+].[Na+]` (centres unmarked) [Cpd.18, disodium 2-[5-(1-{[(dimethyl-1,2-oxazol-4-yl) (phenyl)methyl]carbamoyl}cyclopropyl)-1H-indol-3-yl] ethyl phosphate], the Solubility in series [1] (setting [4]) was >71350 µg/mL. For the same molecule, the Solubility ratio in series [1] is on record as ≥911.
In the case of `Cc1noc(C)c1C(NC(=O)C1(c2ccc3[nH]cc(CCO)c3c2)CC1)c1ccccc1` (centres unmarked) [Ex.9d, N-[(dimethyl-1,2-oxazol-4-yl)(phenyl)methyl]-1-[3-(2-hydroxyethyl)-1H-indol-5-yl]cyclopropane-1-carboxamide], in series [1] (setting [4]), the solubility at 24 h came out at 78.3 µg/mL (≈ 182 µM).
In the case of `Cc1ccc(C(NC(=O)C2(c3ccc4[nH]cc(CCO)c4c3)CC2)c2ccc(C)o2)c(C)c1` (centres unmarked) [Cpd.A, N-[(2,4-dimethylphenyl)(5-methylfuran-2-yl)methyl]-1-[3-(2-hydroxyethyl)-1H-indol-5-yl]cyclopropane-1-carboxamide, reference compound], the solubility at 24 h in series [1] (setting [4]) amounted to 90 µg/mL (≈ 203 µM).
The same measure, in the same setting: the same measure for `COc1ccc(C(NC(=O)C2(c3ccc4[nH]cc(CCO)c4c3)CC2)c2ccccc2)c(C)c1` (centres unmarked) [Ex.5a, 1-[3-(2-hydroxyethyl)-1H-indol-5-yl]-N-[(4-methoxy-2-methylphenyl)(phenyl)methyl]cyclopropane-1-carboxamide]: 3.7 µg/mL (≈ 8.14 µM); for `Cc1ccc(C(NC(=O)C2(c3ccc4[nH]cc(CCO)c4c3)CC2)c2ccccc2)c(N2CCOCC2)c1` (centres unmarked) [Ex.8a, 1-[3-(2-hydroxyethyl)-1H-indol-5-yl]-N-{[4-methyl-2-(morpholin-4-yl)phenyl](phenyl)methyl}cyclopropane-1-carboxamide]: 0.07 µg/mL (≈ 0.137 µM); for `Cc1ccc(C(NC(=O)C2(c3ccc4[nH]cc(CCO)c4c3)CC2)c2cccc(C)n2)c(C)c1` (centres unmarked) [Ex.3a, N-[(2,4-dimethylphenyl)(6-methylpyridin-2-yl)methyl]-1-[3-(2-hydroxyethyl)-1H-indol-5-yl]cyclo-propane-1-carboxamide]: 5.2 µg/mL (≈ 11.5 µM).
Regarding `COc1ccc(C(NC(=O)C2(c3ccc4[nH]cc(CCOP(=O)([O-])[O-])c4c3)CC2)c2ccccc2)c(C)c1.[Na+].[Na+]` (centres unmarked) [Cpd.10, disodium 2-[5-(1-{[(4-methoxy-2-methylphenyl)(phenyl)methyl]carbamoyl}cyclopropyl)-1H-indol-3-yl]ethyl phosphate], the solubility at 24 h in series [1] (setting [4]) is > 50400 µg/mL. The Solubility ratio in series [1] is on record as ≥13513.

Values taken from patent US12391712B2, “Phosphate derivatives of RORgamma modulators and uses thereof” (GENFIT, priority 2019, dated 2025).
